The text below walks through data of ChEMBL document CHEMBL1150248, “Halogenated derivatives QSAR model using spectral moments to predict haloacetic acids (HAA) mutagenicity” (Bioorg Med Chem, 2008).

The subject of this series is Salmonella typhimurium. As to the kind of experiment: Mutagenic activity in Salmonella Typhimurium TA100 without metabolic activation. The class given is toxicity, organism-based. The note with it: salmonella enterica subsp. enterica serovar typhimurium.

Take `O=C(O)C(Br)(Br)Br` [TRIBROMOACETIC ACID]: the Activity result is “Non-toxic”.

As to `O=C(O)C(Cl)(Cl)Br` [BROMODICHLOROACETIC ACID], the Activity entry was “Non-toxic”.

As for `O=C(O)C(Cl)(Cl)Cl` [TRICHLOROACETIC ACID], the Activity entry is “Non-toxic”.
